Assays:
[1] = tested on: hGBM cells; assay: CyQUANT assay, glucose restriction combined with mitochondrial targeting; assay type: cell-based, human; conditions: physiological glucose plus 0.5 μM rotenone or 10 mM metformin, 24 hours
Protocol: (§1) Propidium iodide and cleaved caspase 3 staining were quantified using flow cytometry. The effects of restricting glucose along with mitochondrial targeting using rotenone or metformin were investigated using the CyQUANT™ assay. Cells were plated at 60,000 cells per well in 96-well plates and exposed to the treatments alone or in combination (physiological glucose, 0.5 μM rotenone, and 10 mM metformin). CyQUANT™ binding dye was added to each well and incubated for 30 min at 37° C. before being quantified using Biotek™ Cytation™ 3 Cell Imaging Multi-Mode Reader.

[2] = tested on: L1 SCC, FCC or total unsorted intracranial xenografts; assay: In vivo rotenone treatment of intracranially implanted animals, survival; set-up: species or system NOD-SCID mice
Source text: Adult male NOD-SCID mice (7-15 weeks old) were used for in vivo tumor implants following NIH and institutional (IACUC) guidelines and regulations for animal care and handling. The mice colonies were maintained at the University of Florida's animal facility. Animals were randomized to cages following implantation. For in vivo tumor invasion assay, FACS cells were intracranially implanted as previously described (Deleyrolle L P, et al. (2011) Brain 134:1331-43; Siebzehnrubl F A, et al. (2013) Hoang-Minh et al., EMBO Mol Med: 1196-1212) and invasion assay was performed 10 weeks post implant. For in vivo TMZ treatment, animals were implanted with 100,000 cells immediately after cell sorting. Tumor-bearing animals were intraperitoneally treated with 5 injections of 20 mg/kg TMZ over 5 days at 3 (hGBM L0) or 4 (hGBM L2) weeks post implantation. For in vivo restricted glucose and mitochondria targeting experiments, animals were xenografted with SCCs or FCCs and subjected to either a high carbohydrate control diet or a custom supplemented high fat/low carbohydrate dietary regimen (sHFLC) (Martuscello R T, et al. (2016) Clin Cancer Res. 22:2482-95). Each group received vehicle or rotenone treatment (0.5 mg/kg i.p, once a week for 6 weeks).

[3] = tested on: hGBM SCCs and FCCs; assay: Cell death by flow cytometry (propidium iodide incorporation, cleaved caspase 3); assay type: cell-based, human; conditions: for apoptotic cell death (cleaved caspase 3) in SCCs: unlike FCCs, 24 hours of treatment
Protocol: Propidium iodide incorporation and expression of cleaved caspase 3 were used to compare the effects of glucose restriction and/or mitochondrial function inhibition (by rotenone or metformin treatment). Briefly, cells were labeled with CellTrace dye and grown in complete medium for 5-7 days before being placed in high glucose (HG; >500 mg/dL) or physiological glucose conditions (PG; 90-110 mg/dL) and/or treated with rotenone (0.5-1 μM) or metformin (10-20 mM) for 24 hours. Media glucose concentrations were monitored daily and maintained constant throughout the experiments by adding glucose to the cell cultures as needed, which prevented the glucose supply exhaustion that might have occurred due to FCCs' higher division rate.
as §1

[4] = biological target: T1, FABP3 (Homo sapiens, UniProt P05413); assay: C16-BODIPY fatty acid uptake by flow cytometry, FABP3 inhibition; assay type: cell-based; conditions: SCCs; 250 nM FABP3 inhibitor
T1 construct: endogenous in cells; host or cells: patient-derived GBM cells (SCCs and FCCs)
T1 sequence (P05413 whole entry): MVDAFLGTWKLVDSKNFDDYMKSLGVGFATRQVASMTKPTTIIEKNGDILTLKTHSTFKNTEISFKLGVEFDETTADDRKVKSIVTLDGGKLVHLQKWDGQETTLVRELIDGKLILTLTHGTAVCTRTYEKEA
Protocol: (§2) Each cell line was labeled with CellTrace dye and grown for 5-7 days. Cells were then dissociated and treated with different BODIPY® FLC16 (Molecular probes) concentrations and incubation times described below. Fatty acids conjugated to C16-BODIPY fluorophore undergo native-like metabolism and transport. Dose response was performed with 0, 0.5, 2.5, 5, 10, 25, and 50 nM BODIPY, and the time course was done at a concentration of 5 nM for 1, 4, 5, 10, and 15 min. The cells were then washed and fixed with 4% paraformaldehyde. To determine the amount of fatty acid uptake, cells were analyzed by flow cytometry on a BD LSRII Flow Cytometer. Fatty acid transporter inhibitors SB-FI-26 (Cayman Chemicals, #14191) and BMS309403 (Millipore, #34310) were used to inhibit FABP7 (Kaczocha et al., 2014) and FABP3 (Furuhashi et al., 2007), respectively.

[5] = tested on: L0, L1, L2 GBM patient-derived cell line xenografts; assay: In vivo survival with FABP7 inhibitor and/or 2-DG, Kaplan-Meier and Cox frailty model; set-up: species or system NOD-SCID mice; conditions: Cox frailty model, all three GBM cell lines grouped
[6] = tested on: GBM xenograft tumor cell invasion; assay: In vivo tumor cell invasion after FABP7 inhibition; set-up: species or system NOD-SCID mice; conditions: in vivo inhibition of FABP7
Protocol: Tumor invasion was measured using human-specific nestin labeling (Millipore, MAB5326). Full images of brain sections were obtained by multiple gray scale imaging acquired using Spot Advanced software (Spot Imaging Solutions), merged into full images, and inverted into black-and-white images using Photoshop CS6 (Adobe Systems). Staining threshold levels were adjusted in Image J software to distinguish tumor from background, as previously described (Siebzehnrubl F A, et al. (2013) EMBO Mol Med: 1196-1212). Invasion index was obtained by calculating the ratio of the squared-perimeter distance over the area (P2/A). Dissociated tumors are associated with higher invasion indices compared to more spherical tumors characterized by lower invasion indices. High-power images of stained tissues were taken using an IX81-DSU spinning disk confocal microscope (Olympus) fitted with a 60x water immersion objective, and all images were captured as z-stacks (0.5 μm steps). For 3D imaging, pictures were acquired using a UPLSAPO 60x water objective and Hamamatsu ORCA-AG Camera. Images were captured as z-stacks (0.5 μm steps). All image analyses and 3D surface reconstructions utilized the 3i SlideBook v4.2 Software (with Deconvolution Module). Image capture settings were standardized across samples. 3D surface reconstruction rendering cut-off values were also standardized in the 3i SlideBook software.

[7] = biological target: T2, FABP7 (Homo sapiens, UniProt O15540); assay: C16-BODIPY fatty acid uptake by flow cytometry, FABP7 inhibition; assay type: cell-based; conditions: SCCs; 200 nM FABP7 inhibitor, L1
T2 construct: endogenous in cells; host or cells: L1 patient-derived GBM cell line, slow-cycling (SCC) and fast-cycling (FCC) cells
T2 sequence (O15540 whole entry): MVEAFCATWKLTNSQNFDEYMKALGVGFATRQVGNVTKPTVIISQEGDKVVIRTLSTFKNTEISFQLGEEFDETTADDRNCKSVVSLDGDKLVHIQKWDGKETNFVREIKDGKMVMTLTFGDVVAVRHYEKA
Protocol: as §2

[8] = tested on: L1 SCCs and FCCs; assay: CyQUANT proliferation assay, FABP7 inhibitor with high or physiological glucose; assay type: cell-based, human; conditions: 5 days
Source text: (FIG. 7A) GSEA comparing RNA sequencing results between SCCs and FCCs (n=3 biological replicates, L0-1-2) for the fatty acid metabolism gene signature. FDR, false discovery rate; NES, normalized enrichment score; Nom., nominal. (FIG. 7B) Results for qRT-PCR of genes differentially expressed between SCCs and FCCs using the RT2 Profiler PCR Array for Human Fatty Acid Metabolism. Changes in transcript levels are given as percent change relative to FCCs (n=3-8, p<0.05, one sample t-test). (FIG. 7C) FABP7 expression in brain (n=4), breast (n=336), colorectal (n=374), lung (n=117), ovarian (n=242), and pancreatic (n=20) cancer cell lines (**, p<0.005, ****, p<0.0001, one-way ANOVA). (FIG. 7D) Evaluation of the Bredel dataset indicated higher expression of FABP7 in glioblastoma (n=27) compared to non-malignant (n=4) brain tissue (**, p<0.005, t-test). […] (FIG. 7J) C16-BODIPY uptake was measured in L1 GBM line SCCs or FCCs cultured with or without 200 nM FABP7 inhibitor (FABP7i, each condition, n=3, *** p<0.0001, linear regression). […] Cell proliferation was assessed using CyQUANT assays 5 days after treatment (n=2-3, * p<0.05, one-way ANOVA with Tukey post-test). (FIG. 7L) C16-BODIPY uptake was measured in the L1 wild-type (WT) and CRISPR-FABP7 (crFABP7) cell line (each condition, n=3, * p<0.05, linear regression). […]

[9] = tested on: GBM unsorted and SCC populations; assay: Tumor sphere migration assay; assay type: cell-based, human
Protocol: For quantification of cell migration, tumor spheres were plated onto a laminin/poly-D-lysine coated surface at low density and in the presence of growth factors, FABP7 inhibitor (SB-FI-26), or DMSO as a solvent control. Images were taken from the same spheres 2 hours and 24 hours after plating with a Leica DM IL microscope equipped with a DFC3000G camera and Leica application suite X software. The greatest distance of outgrowing cells was measured using ImageJ, and migration distance was calculated as the difference between the two time points. Only spheres with a diameter greater than 50 μm, 2 hours after plating, were used to measure migration distance.

## C=C(C)[C@H]1Cc2c(ccc3c2O[C@@H]2COc4cc(OC)c(OC)cc4[C@@H]2C3=O)O1 [rotenone]
[1]
  GBM cell survival, combination with glucose deprivation: greatest inhibitory effect on GBM cell survival
[2]; FCC-implanted animals, 0.5 mg/kg i.p. once a week
  survival: did not gain any survival benefit
[2]; SCC-implanted animals, 0.5 mg/kg i.p. once a week, versus vehicle
  survival: significant increase in survival
[2]; animals implanted with total unsorted population
  survival: improved survival
[3]
  apoptotic cell death (cleaved caspase 3) in SCCs: significant increase in apoptotic cell death

## CCc1c(-c2ccccc2)c(-c2ccccc2)nn1-c1ccccc1-c1cccc(OCC(=O)O)c1 [FABP3 inhibitor]
[4]
  uptake of fluorescently labeled fatty acid C16-BODIPY: significantly decreased

## CN(C)C(=N)N=C(N)N [metformin]
[1]
  GBM cell survival, combination with glucose deprivation: greatest inhibitory effect on GBM cell survival
[3]
  apoptotic cell death (cleaved caspase 3) in SCCs: significant increase in apoptotic cell death

## O=CC[C@@H](O)[C@H](O)[C@H](O)CO [2-DG, 2-deoxyglucose]
[5]
  average (main) effect HR: 0.74
  mortality hazard ratio (HR) versus control group: 0.84
[3]; 0, 5 or 20 mM for 24 hours
  cell death, sensitivity of SCCs versus FCCs to glycolysis inhibition: SCCs are less sensitive to this pharmacological inhibition than FCCs

## O=C(O)C1[C@H](c2ccccc2)C(C(=O)Oc2cccc3ccccc23)[C@H]1c1ccccc1 (stereo partly shown) [SB-FI-26]
[6]
  tumor cell invasion in vivo: decreased of cell invasion
[7]
  uptake of fluorescently labeled fatty acid C16-BODIPY: significantly decreased
[5]
  average (main) effect HR: 0.38
  mortality hazard ratio (HR) versus control group: 0.43
[8]; L1 FCCs, decreased glucose plus 200 nM FABP7 inhibitor
  FCC growth: did not result in any additional growth inhibitory effect on FCCs
[8]; L1 SCCs, lower glucose plus 200 nM FABP7 inhibitor
  SCC survival/proliferation: significantly inhibited
[9]; FACS-sorted SCCs, all cell lines tested
  cell migration: significant decrease of cell migration
[9]; unsorted total GBM populations, all three lines, 1 and 10 μM
  cell migration: significantly reduced overall cell migration
